Where a name gives a salt, the structure may show the parent alone.
Target: T1, human GnRH receptor (Homo sapiens, UniProt P30968)
T1 construct: expressed in transfected cells; host or cells: CHO (Chinese Hamster Ovary) cells
T1 sequence (P30968 1-328): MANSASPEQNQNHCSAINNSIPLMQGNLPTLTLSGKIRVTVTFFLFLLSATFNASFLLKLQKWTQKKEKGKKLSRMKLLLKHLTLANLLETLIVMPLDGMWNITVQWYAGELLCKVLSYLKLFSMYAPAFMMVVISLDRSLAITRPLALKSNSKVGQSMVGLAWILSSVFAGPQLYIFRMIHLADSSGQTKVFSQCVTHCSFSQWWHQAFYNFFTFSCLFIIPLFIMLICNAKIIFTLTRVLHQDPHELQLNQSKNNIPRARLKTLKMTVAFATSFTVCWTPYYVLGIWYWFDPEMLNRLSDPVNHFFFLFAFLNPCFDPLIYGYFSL
Experiment: 125I-leuprorelin binding inhibition, membrane fraction of CHO cells expressing human GnRH receptors
Details: CHO cell membrane fraction, 25° C., 60 minutes, Hill plot, read-out: 125I-leuprorelin binding inhibitory rate IC50 value

`CCOC(=O)c1cn(Cc2c(F)cccc2F)c2cc(-c3ccc(NC(=O)CC)cc3)c(CN(C)Cc3ccccc3)cc2c1=O` [Example 3, 6-(N-benzyl-N-methylaminomethyl)-1,4-dihydro-1-(2,6-difluorobenzyl)-7-(4-propionylaminophenyl)-4-oxoquinoline-3-carboxylic acid ethyl ester hydrochloride] was tested. Which IC50 did it give?
The IC50 was 50 nM.
